Laboratory results: patent US20230210833A1, “USE OF IRAK4 INHIBITOR IN TREATMENT OF ACUTE LUNG INJURY ALI/ARDS” (SHANGHAI LEADINGTAC PHARMACEUTICAL CO., LTD., priority 2020, published 2023)

Tests used:
Assay type in all cases: in vivo, Balb/c mice
[1] = tested on: TNF-α; assay: TNF-α in alveolar lavage fluid of LPS-induced ALI/ARDS mice (Elisa); details: for Inhibition of TNF-α (%): oral single dose 0.5 h before LPS (146 150 mg/kg, 41 75 mg/kg, 450 100 mg/kg, dexamethasone 10 mg/kg), alveolar lavage fluid supernatant 4 hours after LPS
Experimental: (§1) After LPS induced model for 4 hours, all mice were anesthetized and alveolar lavage fluid was collected, and the supernatant was collected by centrifuging alveolar lavage fluid. The levels of TNF-α, IL-6 and IL-1β in the supernatant were detected by enzyme-linked immunosorbent assay (Elisa).

[2] = Body weight of LPS-induced ALI/ARDS mice; details: oral dosing 0.5 h before and 6 hours after LPS (146 150 mg/kg, 41 75 mg/kg, 450 100 mg/kg, dexamethasone 10 mg/kg); 24 hours after LPS; Mean±SEM
Experimental: (§2) LPS induced model was given again after 6 hours, and the dose was the same as that of the first administration. After 24 hours from LPS induced model, all mice were weighed, the animals used were anesthetized and the alveolar lavage fluid was collected, the lower cell pellets were collected after centrifugation, and the cells were resuspended, fixed with methanol and stained with Wright-Giemsa, and the eosinophils, neutrophils, macrophages and lymphocytes were counted by an optical microscope. The mice were euthanized with excess carbon dioxide. After the maximum blood volume was collected from the heart, the left lung was fixed with neutral formaldehyde and embedded in paraffin, sliced and HE staining, photographed to observe the lung injury and score.

[3] = tested on: IL-1β; assay: IL-1β in alveolar lavage fluid of LPS-induced ALI/ARDS mice (Elisa); details: for Inhibition of IL-1β (%): oral single dose 0.5 h before LPS (146 150 mg/kg, 41 75 mg/kg, 450 100 mg/kg, dexamethasone 10 mg/kg), alveolar lavage fluid supernatant 4 hours after LPS
Experimental: as §1

[4] = tested on: IL-6; assay: IL-6 in alveolar lavage fluid of LPS-induced ALI/ARDS mice (Elisa); details: for Inhibition of IL-6 (%): oral single dose 0.5 h before LPS (146 150 mg/kg, 41 75 mg/kg, 450 100 mg/kg, dexamethasone 10 mg/kg), alveolar lavage fluid supernatant 4 hours after LPS
Experimental: as §1

[5] = tested on: LPS-induced ALI/ARDS model mice; assay: Lung pathology score (HE staining) in LPS-induced ALI/ARDS mice; details: left lung HE staining, 24 hours after LPS; four categories each scored 0 to 4
Experimental: LPS induced model was given again after 6 hours, and the dose was the same as that of the first administration. […] The mice were euthanized with excess carbon dioxide. After the maximum blood volume was collected from the heart, the left lung was fixed with neutral formaldehyde and embedded in paraffin, sliced and HE staining, photographed to observe the lung injury and score.
Lung pathology scoring criteria: (1) alveolar congestion; (2) hemorrhage; (3) neutrophil infiltration into airspace or vascular wall; (4) alveolar wall/thickness formed by hyaline membrane.

[6] = tested on: LPS-induced ALI/ARDS model mice; assay: Cell count of alveolar lavage fluid in LPS-induced ALI/ARDS mice; details: 24 hours after LPS, oral dosing 0.5 h before and 6 hours after LPS
Experimental: as §2

[7] = after acting for 4 hours, comparison between compounds 146, 450, 41 and model group

Cc1cc(-c2nc(C(=O)Nc3cc4oc(N5CCOCC5)nc4nc3N3CC[C@@H](O)C3)co2)ccn1 [Compound 41, (R)-N-(5-(3-hydroxypyrrolidine-1-yl)-2-morpholinoxazo [4,5-b]pyridine-6-yl)-2-(2-methylpyridine-4-yl) oxazole-4-formamide]
Inhibition of TNF-α (%) [1]: 12.90% | Weight [2]: 19.45 ± 0.71 g | Inhibition of IL-1β (%) [3]: 52.00% | Inhibition of IL-6 (%) [4]: 21.40% | Pulmonary pathology score [5]: 4.17 | Eosinophils (*10^4) [6]: 2.81 *10^4 | Lymphocytes (*10^4) [6]: 3.71 *10^4 | Macrophages (*10^4) [6]: 89.06 *10^4 | Neutrophils (*10^4) [6]: 466.17 *10^4 | Total cell count (*10^4) [6]: 561.75 *10^4

CC[C@@H]1[C@H](F)C(=O)N[C@@H]1COc1nccc2cc(C(N)=O)c(OC)cc12 [Compound 450]
TNF-α inhibitory effect (in words) [1, 7]: significantly lower than that of compound 146 | Inhibition of TNF-α (%) [1]: 28.70% | Weight [2]: 18.68 ± 0.4 g | IL-1β inhibitory effect (in words) [3, 7]: significantly lower than that of compound 146 | Inhibition of IL-1β (%) [3]: 43.90% | IL-6 inhibitory effect (in words) [4, 7]: significantly lower than that of compound 146 | Inhibition of IL-6 (%) [4]: 36.40% | Pulmonary pathology score [5]: 4.83 | Eosinophils (*10^4) [6]: 3.11 *10^4 | Lymphocytes (*10^4) [6]: 2.74 *10^4 | Macrophages (*10^4) [6]: 74.91 *10^4 | Neutrophils (*10^4) [6]: 386.74 *10^4 | Total cell count (*10^4) [6]: 467.50 *10^4

C[C@@H]1C[C@H]2[C@@H]3CCC4=CC(=O)C=C[C@]4(C)[C@@]3(F)[C@@H](O)C[C@]2(C)[C@@]1(O)C(=O)CO [Dexamethasone, dexamethasone]
Inhibition of TNF-α (%) [1]: 128.70% | Weight [2]: 18.91 ± 0.74 g | Inhibition of IL-1β (%) [3]: 0.00% | Inhibition of IL-6 (%) [4]: 0.00% | Pulmonary pathology score [5]: 3.50 | Eosinophils (*10^4) [6]: 3.17 *10^4 | Lymphocytes (*10^4) [6]: 3.25 *10^4 | Macrophages (*10^4) [6]: 108.20 *10^4 | Neutrophils (*10^4) [6]: 361.63 *10^4 | Total cell count (*10^4) [6]: 476.25 *10^4
